≈ marks a conversion by molar mass, not a printed value. Read-outs that look alike come from different tables or passages of the source.
Legend:
[1] = tested on: Pseudomonas aeruginosa 1771; experiment: In vitro anti-bacterial activity test (MIC, two-fold agar dilution); type: cell-based; conditions: Pseudomonas aeruginosa 1771; Mueller-Hinton agar, 10⁷ CFU/mℓ, 37°C, 18 hours; read-out: MIC
[2] = tested on: Escherichia coli OTEM; experiment: as above; type: cell-based; conditions: Mueller-Hinton agar, 10⁷ CFU/mℓ, 37°C, 18 hours, read-out: MIC
[3] = tested on: Salmonella typhimurium; experiment: as above; type: cell-based; conditions: Salmonella enterica, Mueller-Hinton agar, 10⁷ CFU/mℓ, 37°C, 18 hours, read-out: MIC
[4] = tested on: Klebsiella aerogenes 1522E; experiment: as above; type: cell-based; conditions: Mueller-Hinton agar, 10⁷ CFU/mℓ, 37°C, 18 hours, read-out: MIC
[5] = tested on: Escherichia coli DC 2; experiment: as above; type: cell-based; conditions: DC2, Mueller-Hinton agar, 10⁷ CFU/mℓ, 37°C, 18 hours, read-out: MIC
[6] = tested on: Staphylococcus aureus 503; experiment: as above; type: cell-based; conditions: Staphylococcus aureus 503; Mueller-Hinton agar, 10⁷ CFU/mℓ, 37°C, 18 hours; read-out: MIC
[7] = tested on: Streptococcus pyogenes 308A; experiment: as above; type: cell-based; conditions: Mueller-Hinton agar, 10⁷ CFU/mℓ, 37°C, 18 hours, read-out: MIC
[8] = tested on: Streptococcus faecium MD 8b; experiment: as above; type: cell-based; conditions: Enterococcus faecium, MD8B; Streptococcus faecium MD 8b; Mueller-Hinton agar, 10⁷ CFU/mℓ, 37°C, 18 hours; read-out: MIC
[9] = tested on: Escherichia coli DC 0; experiment: as above; type: cell-based; conditions: DC0, Mueller-Hinton agar, 10⁷ CFU/mℓ, 37°C, 18 hours, read-out: MIC
[10] = tested on: Staphylococcus aureus SG 511; experiment: as above; type: cell-based; conditions: SG511; Staphylococcus aureus SG 511; Mueller-Hinton agar, 10⁷ CFU/mℓ, 37°C, 18 hours; read-out: MIC
[11] = tested on: Streptococcus pyogenes 77A; experiment: as above; type: cell-based; conditions: Streptococcus pyogenes 77A; Mueller-Hinton agar, 10⁷ CFU/mℓ, 37°C, 18 hours; read-out: MIC
[12] = tested on: Pseudomonas aeruginosa 1592E; experiment: as above; type: cell-based; conditions: Mueller-Hinton agar, 10⁷ CFU/mℓ, 37°C, 18 hours, read-out: MIC
[13] = tested on: Enterobacter cloacae 1321E; experiment: as above; type: cell-based; conditions: Mueller-Hinton agar, 10⁷ CFU/mℓ, 37°C, 18 hours, read-out: MIC
[14] = tested on: Staphylococcus aureus 285; experiment: as above; type: cell-based; conditions: Staphylococcus aureus 285; Mueller-Hinton agar, 10⁷ CFU/mℓ, 37°C, 18 hours; read-out: MIC
[15] = tested on: Escherichia coli O 55; experiment: as above; type: cell-based; conditions: O55, Mueller-Hinton agar, 10⁷ CFU/mℓ, 37°C, 18 hours, read-out: MIC
[16] = tested on: Pseudomonas aeruginosa 1771M; experiment: as above; type: cell-based; conditions: 18 h
[17] = tested on: P. mirabilis; experiment: Preventive effect on the systemic infection; type: in vivo; conditions: Proteus mirabilis, in Mus musculus, P. mirabilis intraperitoneal infection, NMRI mice, survival on day 7, probit analysis, read-out: ED₅₀
Experimental: (§1) 10 fold of the pathogen which leads to 100% lethality were injected intraperitoneally to male and female NMRI mice weighing 18 to 20g. Immediately and after 4 hours, the dose of test compounds which was determined by two-fold serial dilution method was administered orally or subcutaneously; and on day 7, the effectiveness was evaluated in terms of ED₅₀ calculated from the number of survived mice by the probit analysis.

[18] = tested on: S. aureus 17740; experiment: Preventive effect on the systemic infection; type: in vivo; conditions: Staphylococcus aureus, 17740, in Mus musculus, S. aureus 17740 intraperitoneal infection, NMRI mice, survival on day 7, probit analysis, read-out: ED₅₀
Experimental: as §1

[19] = in vivo; conditions: female, ICR, mouse
Experimental: Test compounds were administered to female ICR mice weighing 20 to 25g and on day 14, LD₅₀ was calculated from the number of survived mice by the probit analysis.

[20] = tested on: Pseudomonas aeruginosa 9027; experiment: In vitro anti-bacterial activity test (MIC, two-fold agar dilution); type: cell-based; conditions: Pseudomonas aeruginosa 9027; Mueller-Hinton agar, 10⁷ CFU/mℓ, 37°C, 18 hours; read-out: MIC
[21] = tested on: Escherichia coli 1507E; experiment: as above; type: cell-based; conditions: Mueller-Hinton agar, 10⁷ CFU/mℓ, 37°C, 18 hours, read-out: MIC
[22] = tested on: Enterobacter cloacae P99; experiment: as above; type: cell-based; conditions: Mueller-Hinton agar, 10⁷ CFU/mℓ, 37°C, 18 hours, read-out: MIC
[23] = tested on: Klebsiella aerogenes 1082E; experiment: as above; type: cell-based; conditions: Mueller-Hinton agar, 10⁷ CFU/mℓ, 37°C, 18 hours, read-out: MIC
[24] = Oral Administration immediately and after 4 hours
[25] = Subcutaneous Injection immediately and after 4 hours

| Structure (SMILES) | MIC [1] | MIC [2] | MIC [3] | MIC [4] | MIC [5] | MIC [6] | MIC [7] | MIC [8] | MIC [9] | MIC [10] | MIC [11] | MIC [12] | MIC [13] | MIC [14] | MIC [15] | MIC [16] | ED50 [18, 24] | ED50 [18, 25] | LD50 at 14 day ([19]; ip) | LD50 at 14 day ([19]; po) | also measured |
| --- | --- | --- | --- | --- | --- | --- | --- | --- | --- | --- | --- | --- | --- | --- | --- | --- | --- | --- | --- | --- | --- |
| NC1CCC2=C1CN(c1c(F)cc3c(=O)c(C(=O)O)cn(C4CC4)c3c1F)C2 (centres unmarked) [Example 1, 7-[6-amino-3-azabicyclo[3,3,0]oct-1(5)ene-3-yl]-1-cyclopropyl-6,8-difluoro-1,4-dihydro-4-oxoquinoline-3-carboxylic acid] | 1.56 µg/mL (≈ 4.03 µM) | 0.049 µg/mL (≈ 0.126 µM) | 0.049 µg/mL (≈ 0.126 µM) | 0.098 µg/mL (≈ 0.253 µM) | 0.098 µg/mL (≈ 0.253 µM) | 0.049 µg/mL (≈ 0.126 µM) | 0.391 µg/mL (≈ 1.01 µM) | 0.098 µg/mL (≈ 0.253 µM) | 0.391 µg/mL (≈ 1.01 µM) | 0.098 µg/mL (≈ 0.253 µM) | 0.098 µg/mL (≈ 0.253 µM) | 1.56 µg/mL (≈ 4.03 µM) | 0.025 µg/mL (≈ 0.0645 µM) | 0.098 µg/mL (≈ 0.253 µM) | 0.025 µg/mL (≈ 0.0645 µM) | 0.391 µg/mL (≈ 1.01 µM) | 105 mg/kg | 25 mg/kg | 720 mg/kg | 4000 mg/kg | ED50 [17, 24]: 5.5 mg/kg; ED50 [17, 25]: 1.55 mg/kg; MIC [20]: 1.56 µg/mL (≈ 4.03 µM); MIC [21]: 0.049 µg/mL (≈ 0.126 µM); MIC [22]: 0.098 µg/mL (≈ 0.253 µM); MIC [23]: 0.007 µg/mL (≈ 0.0181 µM) |
| CNC1CCC2=C1CN(c1c(F)cc3c(=O)c(C(=O)O)cn(C4CC4)c3c1F)C2 (centres unmarked) [Example 2, 1-cyclopropyl-6,8-difluoro-7-[6-methylamino-3-azabicyclo[3,3,0]oct-1(5)ene-3-yl]-1,4-dihydro-4-oxoquinoline-3-carboxylic acid] | 1.56 µg/mL (≈ 3.89 µM) | 0.098 µg/mL (≈ 0.244 µM) | 0.391 µg/mL (≈ 0.974 µM) | 0.049 µg/mL (≈ 0.122 µM) | 0.098 µg/mL (≈ 0.244 µM) | 0.049 µg/mL (≈ 0.122 µM) | 0.195 µg/mL (≈ 0.486 µM) | 0.098 µg/mL (≈ 0.244 µM) | 0.781 µg/mL (≈ 1.95 µM) | 0.049 µg/mL (≈ 0.122 µM) | 0.098 µg/mL (≈ 0.244 µM) | 1.56 µg/mL (≈ 3.89 µM) | 0.013 µg/mL (≈ 0.0324 µM) | 0.098 µg/mL (≈ 0.244 µM) | 0.013 µg/mL (≈ 0.0324 µM) | 0.781 µg/mL (≈ 1.95 µM) | 112 mg/kg | 27 mg/kg | 810 mg/kg | 4100 mg/kg | MIC [20]: 3.12 µg/mL (≈ 7.78 µM); MIC [21]: 0.098 µg/mL (≈ 0.244 µM); MIC [22]: 0.049 µg/mL (≈ 0.122 µM); MIC [23]: 0.013 µg/mL (≈ 0.0324 µM) |
